Values after ≈ are worked out from the molar mass of the structure shown.
Assays:
[1] = UV-VIS absorbance maxima of chromogenic conjugates and mixtures; type: physicochemical
Experimental: “Spectrally narrow” refers to a chromogen having less that 50 nm broadness at its maximum absorbance at half peak height by UV-VIS spectroscopy, measured in +99% water at pH, 6-8 in 10 μM concentration. A “magenta chromogen” is a spectrally narrow chromogen with peak absorbance between 525 and 530 nm, measured in +99% water at pH, 6.0-8.0 in 10 μM concentration. A “greenish-yellow chromogen” is a chromogen with peak absorbance below 475 nm and less than 10% absorbance at 530 nm or above relative to the peak absorbance, measured in +99% water at pH, 6.0-8.0 in 10 μM concentration. A “yellow chromogen” is a chromogen with peak absorbance below 505 nm and less than 10% absorbance at 530 nm or above relative to the peak absorbance, measured in +99% water at pH, 6.0-8.0 in 10 μM concentration. A “cyan chromogen” is a chromogen having maximal absorbance above 615 nm and less than 10% relative absorbance at any wavelength between 530 and 400 nm relative to the peak absorbance, measured in +99% water at pH, 6.0-8.0 m 10 μM concentration. An “orange chromogen” is a “spectrally narrow” chromogen that has maximum absorbance between 495 and 520 nm, measured in +99% water at pH, 6-8 in 10 μM concentration. A “dichroic chromogen” is a chromogen that has at least two absorbance maxima, separated by a local minimum at least 50 nm wide and one further global minimum between 390 and 700 nm measured in water between pH 6 and 8.

[2] = target: T1, HRP (Armoracia rusticana, UniProt P00433); assay: IHC staining of FFPE human tissues and Her2 control cell lines, Envision+ Dual link HRP visualization, DAB as reference; design: species or system horse radish; conditions: for colour of IHC stain / stain intensity and crispness compared with DAB: tested in 0.4 to 1 mM; for stain intensity and crispness compared with DAB: low and medium expression targets; for IHC staining performance of Rhodamine 6G derivatives with different 4-hydroxy cinnamic acid derivatives: peroxidase substrate moiety varied
T1 construct: purchased Dako K4061
T1 sequence (P00433 31-338): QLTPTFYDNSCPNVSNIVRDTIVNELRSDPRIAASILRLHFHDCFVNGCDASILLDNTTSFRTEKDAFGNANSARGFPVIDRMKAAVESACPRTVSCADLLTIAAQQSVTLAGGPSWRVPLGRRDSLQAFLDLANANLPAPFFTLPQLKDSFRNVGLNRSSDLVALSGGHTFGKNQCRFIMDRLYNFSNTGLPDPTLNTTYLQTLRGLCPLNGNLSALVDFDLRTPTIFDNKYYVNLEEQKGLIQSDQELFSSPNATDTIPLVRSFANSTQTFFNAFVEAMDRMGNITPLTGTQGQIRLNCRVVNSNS

[3] = Solubility in substrate buffer as function of percentage of NMP; type: physicochemical
Experimental: Only Compound 6 having a piperazine amide stands out by absorbing at 536 nm, around 5 nm above the esters comprising Compounds 2, 13, 14 and 15 all with abs max within 531-533 nm. […] Addition of NMP to the buffer in all cases increased chromogen solubility. See result table below of the solubility of 2, 13 and 15 as function of percentage of NMP as organic co solvent, 0% representing neat aqueous buffer 50 mM imidazole: HCl, pH 6.8, 3% and 10% said percent.

[4] = target: T1, HRP; assay: Tissue staining with mixtures of chromogens in chromogen buffer; design: species or system horse radish; conditions: alone
[5] = target: T1, HRP; assay: Triple immunohistochemical staining (Ki67, CD20, Her2) on Dako Autostainer; design: species or system horse radish; conditions: 0.5 mM conjugate, 50 mM imidazole:HCl pH 6.8, 0.003% hydrogen peroxide, 2.5% NMP, 5 min
Experimental: The exemplary triple staining method employed DAB in combination with Compounds 2 and 8, on a Dako Autostainer at room temperature. The steps of the method included: • 1. Blocking of endogenous peroxidase with peroxidase block (Dako S2023), 5 min. • 2. antiKi67 RTU antibody (Dako IR626), 20 mm • 3. Envision+dual Link HRP (Dako K4061), 20 min • 4. DAB (Dako K3468) 5 min. • 5. HRP quenching with peroxidase block (Dako S2023) with addition of 5 mg/mL alphacyano cinnamic acid, 5 min. • 6. antiCD20cy RTU antibody (Dako IR604), 20 min • 7. Envision+dual Link HRP (Dako K4061), 20 min • 8. 0.5 mM compound 2 in 50 mM imidazole: HCl pH 6.8, 0.003% hydrogen peroxide and 2.5% NMP, 5 min. • 9. HRP quenching with peroxidase block (Dako S2023) with addition of 5 mg/mL alphacyano cinnamic acid, 5 min. • 10. antiHer2 (Dako vial ST301 from HercepTest kit SK001) 20 min. • 11. Envision+dual Link HRP (Dako K4061), 20 min • 12. 0.5 mM compound 8 in 50 mM imidazole: HCl pH 6.8, 0.003% hydrogen peroxide and 2.5% NMP, 5 min. • 13. Counter stain with haematoxylin (Dako S3301)

[6] = imidazole:HCl buffer (substrate buffer) with 3% NMP, aqueous buffer, 3% NMP in 50 mM imidazole:HCl pH 6.8
[7] = imidazole:HCl buffer (substrate buffer) with 10% NMP, aqueous with cosolvent or surfactant or cyclodextrin, 10% NMP in 50 mM imidazole:HCl pH 6.8
[8] = imidazole:HCl buffer (substrate buffer), 0% NMP, neat aqueous buffer 50 mM imidazole:HCl pH 6.8

In the case of `CC/N=c1\cc2oc3cc(NCC)c(C)cc3c(-c3ccccc3C(=O)N3CCN(C(=O)c4ccc(-c5c6ccc(=O)cc-6oc6cc(O)ccc56)c(C(=O)O)c4)CC3)c-2cc1C` [6G compound], the “colour of the compound as chromogen” value [1] is reported as “orange”.

In the case of `N=c1ccc2c(-c3ccccc3C(=O)OCC(=O)NCCOCCOCCNC(=O)/C=C/c3ccc(O)cc3)c3ccc(N)cc3oc-2c1` [Compound 1, Rhodamine 110-L12-Cou], the “Absp nm (max)” value [1] is reported as 505 nm.

With `CN(C)c1ccc2c(-c3ccccc3C(=O)OCC(=O)NCCOCCOCCNC(=O)/C=C/c3ccc(O)cc3)c3ccc(=[N+](C)C)cc-3oc2c1` [Compound 3, TetramethylRhodamine-L12-Cou] the “Absp nm (max)” value [1] was 556 nm, the “colour of IHC stain” value [2] was “slightly redish purple stains” and the “stain intensity and crispness compared with DAB” value [2] was “more than matched DAB in intensity and crispness”.

In the case of `CCN(CC)c1ccc2c(-c3ccccc3C(=O)OCC(=O)NCCOCCOCCNC(=O)/C=C/c3ccc(O)cc3)c3ccc(=[N+](CC)CC)cc-3oc2c1` [Compound 4, RhodamineB-L12-Cou], the “Absp nm (max)” value [1] is reported as 561 nm, the “colour of IHC stain” value [2] is reported as “purple stains” and the “stain intensity and crispness compared with DAB” value [2] is reported as “matched DAB in intensity and crispness”.

For `O=C(/C=C/c1ccc(O)cc1)NCCOCCOCCNC(=O)COC(=O)c1ccccc1C1=c2cc3c4c(c2Oc2c1cc1c5c2CCCN5CCC1)CCC[N+]=4CCC3` [Compound 5, Rhodamine101-L12-Cou], the “Absp nm (max)” value [1] was 584 nm.

For `CC/N=c1\cc2oc3cc(NCC)c(C)cc3c(-c3ccccc3C(=O)N3CCN(CC(=O)NCCOCCOCCNC(=O)/C=C/c4ccc(O)cc4)CC3)c-2cc1C` [Compound 6, Rhodamine 6G-Pip-L12-Cou], the “Absp nm (max)” value [1] was 536 nm, the “solubility in the substrate buffer relative to Compound 2” value [3] was “significantly increased solubility” and the “colour of IHC stain” value [2] was “slightly purplish red stains”. For the same compound, the “stain intensity and crispness compared with DAB” value [2] was “matched DAB in intensity and crispness”.

In the case of `CN(C)c1ccc2c(-c3ccccc3C(=O)N3CCN(CC(=O)NCCOCCOCCNC(=O)/C=C/c4ccc(O)cc4)CC3)c3ccc(=[N+](C)C)cc-3oc2c1` [Compound 7, TM-Rhodamine-Pip-L12-Cou], the “Absp nm (max)” value [1] is reported as 561 nm.

For `O=C(O)COc1ccc2c(-c3ccccc3C(=O)OCC(=O)NCCOCCOCCNC(=O)/C=C/c3ccc(O)cc3)c3ccc(=O)cc-3oc2c1` [Compound 9, (O-carboxymethyl)-Flu-L12-Cou], the “Absp nm (max)” value [1] was 458 nm, the “colour of IHC stain” value [2] was “slightly greenish yellow stains” and the “stain intensity and crispness compared with DAB” value [2] was “almost matched DAB in intensity”. For the same compound, the “colour of stain of compound alone” value [4] was “unpleasing greenish yellow”.

In the case of `O=C(/C=C/c1ccc(O)cc1)NCCOCCOCCNC(=O)COC(=O)c1ccccc1-c1c2ccc(=O)cc-2oc2cc(O)ccc12` [Compound 10, Flu-L12-Cou], the “Absp nm (max)” value [1] is reported as 503 nm and the “colour of stain of compound alone” value [4] is reported as “brownish hue”.

With `O=C(/C=C/c1ccc(O)cc1)NCCOCCOCCNC(=O)COC(=O)c1ccccc1-c1c2cc(Cl)c(=O)cc-2oc2cc(O)c(Cl)cc12` [Compound 11, 2,7Dichloro-Flu-L12-Cou] the “Absp nm (max)” value [1] was 517 nm.

For `O=C(/C=C/c1ccc(O)cc1)NCCOCCOCCNC(=O)CN1CCN(C(=O)c2ccccc2-c2c3ccc(=O)cc-3oc3cc(O)ccc23)CC1` [Compound 12, Flu-Pip-L12-Cou], the “Absp nm (max)” value [1] was 508 nm.

In the case of `CC/N=c1\cc2oc3cc(NCC)c(C)cc3c(-c3ccccc3C(=O)OCC(=O)NCCNC(=O)/C=C/c3ccc(O)cc3)c-2cc1C` [Compound 13, Rho6G-L6-Cou], the “Absp nm (max)” value [1] is reported as 532 nm, the solubility [3, 6] is reported as 900 µM (≈ 595 µg/mL) and the solubility [3, 7] is reported as 1800 µM (≈ 1190 µg/mL). The solubility [3, 8] was 500 µM (≈ 330 µg/mL), the “solubility in the substrate buffer relative to Compound 2” value [3] was “reduced solubility” and the “colour of IHC stain” value [2] was “red stains”. For the same compound, the “stain intensity and crispness compared with DAB” value [2] was “matched DAB in intensity and crispness”.

For `CC/N=c1\cc2oc3cc(NCC)c(C)cc3c(-c3ccccc3C(=O)OCCN3CCN(CC(=O)NCCOCCOCCNC(=O)/C=C/c4ccc(O)cc4)CC3)c-2cc1C` [Compound 14, Rhodamine 6G-Et-Pip-L12-Cou], the “Absp nm (max)” value [1] was 531 nm, the “solubility in the substrate buffer relative to Compound 2” value [3] was “significantly increased solubility” and the “colour of IHC stain” value [2] was “red stains”. For the same compound, the “stain intensity and crispness compared with DAB” value [2] was “matched DAB in intensity and crispness”.

In the case of `CC/N=c1\cc2oc3cc(NCC)c(C)cc3c(-c3ccccc3C(=O)OCC(=O)NCCOCCOCCNC(=O)COCC(=O)NCCOCCOCCNC(=O)/C=C/c3ccc(O)cc3)c-2cc1C` [Compound 15, Rho6G-L27-Cou], the “Absp nm (max)” value [1] is reported as 533 nm, the solubility [3, 6] is reported as 1900 µM (≈ 1890 µg/mL) and the solubility [3, 7] is reported as 6000 to 7000 µM (≈ 5970 to 6970 µg/mL). The solubility [3, 8] was 1700 µM (≈ 1690 µg/mL), the “solubility in the substrate buffer relative to Compound 2” value [3] was “significantly increased solubility” and the “colour of IHC stain” value [2] was “deep blue stains”. For the same compound, the “stain intensity and crispness compared with DAB” value [2] was “more than matched DAB in intensity and crispness”.

With `CC/N=c1\cc2oc3cc(NCC)c(C)cc3c(-c3ccccc3C(=O)OCC(=O)NCCOCCOCCNC(=O)/C=C/c3ccc(O)c(O)c3)c-2cc1C` [Compound 16, Rhodamine 6G-L12-Caf] the “Absp nm (max)” value [1] was 531 nm and the “IHC staining performance of Rhodamine 6G derivatives with different 4-hydroxy cinnamic acid derivatives” value [2] was “performed poorly”.

For `CC/N=c1\cc2oc3cc(NCC)c(C)cc3c(-c3ccccc3C(=O)OCC(=O)NCCOCCOCCNC(=O)/C=C/c3ccc(O)cc3O)c-2cc1C` [Compound 17, Rhodamine 6G-L12-2,4-OH-Cin], the “Absp nm (max)” value [1] was 531 nm and the “IHC staining performance of Rhodamine 6G derivatives with different 4-hydroxy cinnamic acid derivatives” value [2] was “strong stains but also some background”.

With `CC/N=c1\cc2oc3cc(NCC)c(C)cc3c(-c3ccccc3C(=O)OCC(=O)NCCOCCOCCNC(=O)/C=C/c3ccc(O)c(OC)c3)c-2cc1C` [Compound 18, Rhodamine 6G-12-Fer] the “Absp nm (max)” value [1] was 531 nm and the “IHC staining performance of Rhodamine 6G derivatives with different 4-hydroxy cinnamic acid derivatives” value [2] was “performed acceptably”.

For `CC/N=c1\cc2oc3cc(NCC)c(C)cc3c(-c3ccccc3C(=O)OCC(=O)NCCOCCOCCNC(=O)/C=C/c3cc(OC)c(O)c(OC)c3)c-2cc1C` [Compound 19, Rhodamine 6G-L12-Sin], the “Absp nm (max)” value [1] was 531 nm and the “IHC staining performance of Rhodamine 6G derivatives with different 4-hydroxy cinnamic acid derivatives” value [2] was “performed poorly”.

With `CNCCNC` [Compound 34A, N,N′-dimethyl ethylenediamine] the “absorbance of Rhodamine 6G secondary amide / ester derivatives” value [1] was 531 nm.

`CCN(CC)c1ccc(C(=C2C=CC(=[N+](CC)CC)C=C2)c2cc(OCC(=O)NCCOCCOCCNC(=O)/C=C/c3ccc(O)cc3)c(S(=O)(=O)O)cc2S(=O)(=O)O)cc1` [Compound 35] gave an absorbance maximum ([1]; in neutral water) of 640 nm.

With `Nc1ccc(-c2ccc(N)c(N)c2)cc1N` [DAB, 3,3′-diaminobenzidine, reference compound] the “staining in the high expression range” value ([2]; very high expression targets, trained observers) was “tended to over-stain and blackout morphological details” and the “stain produced in triple staining” value [5] was “brown ki67 nuclear stain”.

With `CC/N=c1\cc2oc3cc(NCC)c(C)cc3c(-c3ccccc3C(=O)N3CCN(C(=O)c4ccccc4-c4c5ccc(=O)cc-5oc5cc(OCC(=O)NCCOCCOCCNC(=O)OC(C)(C)C)ccc45)CC3)c-2cc1C` [Formula XIVb] the “colour of the compound as chromogen” value [1] was “orange-red color”.
